pIC50: −log10 of the molar value.
Tests used:
[1] = target: Beta Secretase enzyme (BACE1) (Homo sapiens, UniProt P56817); experiment: In vitro enzymatic BACE FRET assay; format: biochemical; conditions: read-out: BACE1 FRET assay IC50
Summary of the method: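 Readout: dequenched fluorescence (ex 488 nm/[…]) after neutralizing with Tris buffer. Reactions, begun by adding 50 nM quenched peptide substrate spanning the BACE cleavage site, were incubated one hour at pH 4.2 in 0.05 M acetate with 100 uM genapol and 10% final DMSO.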

[2] = test system: Aβ40 in conditioned medium of cells stably expressing Amyloid Precursor Protein (APP); experiment: In vitro BACE cell-based assay (HEK cell assay), Aβ40 sandwich ELISA; conditions: Homo sapiens, HEK293; Aβ40, 24 h incubation
Summary of the method: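 Aβ40 in conditioned medium was quantified by time-resolved fluorescence sandwich ELISA (pAb40 capture 3 h at 4 °C, biotin-6E10 detection 2 h at 4 °C) after 24 h compound exposure of APP-expressing cells. Doses spanned 10 points from 100 μM or 10 μM top, 0.1% DMSO; IC50 was derived from percent of control.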

Cathepsin D (Cat D) = target: T1, Cathepsin D (Cat D) (Homo sapiens, UniProt P07339); experiment: In vitro enzymatic Cathepsin D (Cat D) FRET assay; format: biochemical; conditions: read-out: CatD IC50
T1 construct: Recombinant Cat D was expressed in CHO cells; made in house; host or cells: CHO cells
Summary of the method: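 FRET read-out: a fluorophore/quencher-labelled peptide substrate is cleaved by 9 nM Cat D (recombinant, CHO-expressed) following a one-hour preincubation with inhibitor dilutions in DMSO. Tris buffer added to neutralize pH ends the reaction before fluorescence measurement.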

Chain of Beta Secretase enzyme (BACE1) (P56817 46-501): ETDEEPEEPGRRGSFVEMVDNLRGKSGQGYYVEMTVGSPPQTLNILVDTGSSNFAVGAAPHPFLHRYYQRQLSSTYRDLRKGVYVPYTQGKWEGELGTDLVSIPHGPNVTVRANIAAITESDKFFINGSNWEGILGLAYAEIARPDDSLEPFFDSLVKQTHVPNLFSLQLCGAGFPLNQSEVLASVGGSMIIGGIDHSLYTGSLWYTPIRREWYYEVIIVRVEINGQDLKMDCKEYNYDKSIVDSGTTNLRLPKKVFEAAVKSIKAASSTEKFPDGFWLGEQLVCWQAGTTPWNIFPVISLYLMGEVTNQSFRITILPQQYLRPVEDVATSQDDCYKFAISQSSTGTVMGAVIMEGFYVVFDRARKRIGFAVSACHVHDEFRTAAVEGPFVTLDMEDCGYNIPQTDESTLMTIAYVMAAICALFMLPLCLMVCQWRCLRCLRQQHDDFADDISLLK
T1 sequence (P07339 65-412, species assumed): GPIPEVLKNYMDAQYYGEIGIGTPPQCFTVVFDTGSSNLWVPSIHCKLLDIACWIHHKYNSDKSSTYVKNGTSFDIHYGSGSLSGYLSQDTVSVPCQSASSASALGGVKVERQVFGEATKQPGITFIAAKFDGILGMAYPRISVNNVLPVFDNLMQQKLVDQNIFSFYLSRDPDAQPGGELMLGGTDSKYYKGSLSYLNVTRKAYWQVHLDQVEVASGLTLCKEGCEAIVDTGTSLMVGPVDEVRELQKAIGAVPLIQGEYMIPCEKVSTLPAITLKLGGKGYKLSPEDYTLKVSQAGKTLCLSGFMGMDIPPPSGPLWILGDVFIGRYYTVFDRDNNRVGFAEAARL

SMILES: COc1cc(F)c2c(Nc3ccc(F)c([C@]4(C)CS(=O)(=O)C(C)(C)C(N)=N4)c3)ncnc2c1 [Example 53, N-(3-((3R)-5-amino-3,6,6-trimethyl-1,1-dioxido-3,6-dihydro-2H-1,4-thiazin-3-yl)-4-fluorophenyl)-5-fluoro-7-methoxy-4-quinazolinamine]
- pIC50 [1]: 6.13
- pIC50 [2]: 6.40
- pIC50 (Cathepsin D (Cat D)): 3.49

SMILES: Cc1nc2c(Nc3ccc(F)c([C@]4(C)CS(=O)(=O)C(C)(C)C(N)=N4)c3)nccc2s1 [Example 54, N-(3-((3R)-5-amino-3,6,6-trimethyl-1,1-dioxido-3,6-dihydro-2H-1,4-thiazin-3-yl)-4-fluorophenyl)-2-methyl[1,3]thiazolo[4,5-c]pyridin-4-amine]
- pIC50 [1]: 7.76
- pIC50 [2]: 6.86
- pIC50 (Cathepsin D (Cat D)): < 3.40

SMILES: CC1(C)C(N)=N[C@](C)(c2cc(Nc3nccc4nc(C(F)(F)F)cnc34)ccc2F)CS1(=O)=O [Example 55, N-(3-((3R)-5-amino-3,6,6-trimethyl-1,1-dioxido-3,6-dihydro-2H-1,4-thiazin-3-yl)-4-fluorophenyl)-2-(trifluoromethyl)pyrido[3,4-b]pyrazin-5-amine]
- pIC50 [1]: 8.28
- pIC50 [2]: 7.46
- pIC50 (Cathepsin D (Cat D)): < 3.88

SMILES: COc1cnc2c(Nc3ccc(F)c([C@]4(C)CS(=O)(=O)CC(N)=N4)c3)nccc2c1 [Example 56, N-(3-((3R)-5-amino-3-methyl-1,1-dioxido-3,6-dihydro-2H-1,4-thiazin-3-yl)-4-fluorophenyl)-3-methoxy-1,7-naphthyridin-8-amine]
- pIC50 [1]: 7.20
- pIC50 [2]: 7.57
- pIC50 (Cathepsin D (Cat D)): 4.16

SMILES: C[C@@]1(c2cc(Nc3nccc4cc(Cl)cnc34)ccc2F)CS(=O)(=O)CC(N)=N1 [Example 57, N-(3-((3R)-5-amino-3-methyl-1,1-dioxido-3,6-dihydro-2H-1,4-thiazin-3-yl)-4-fluorophenyl)-3-chloro-1,7-naphthyridin-8-amine]
- pIC50 [1]: 8.37
- pIC50 [2]: 7.72
- pIC50 (Cathepsin D (Cat D)): 3.87

SMILES: Cc1nc2c(Nc3ccc(F)c([C@]4(C)CS(=O)(=O)CC(N)=N4)c3)nccc2s1 [Example 58, N-(3-((3R)-5-amino-3-methyl-1,1-dioxido-3,6-dihydro-2H-1,4-thiazin-3-yl)-4-fluorophenyl)-2-methyl[1,3]thiazolo[4,5-c]pyridin-4-amine]
- pIC50 [1]: 6.72
- pIC50 [2]: 6.53
- pIC50 (Cathepsin D (Cat D)): 3.52

SMILES: COc1cnc2c(Nc3ccc(F)c([C@]4(C)CS(=O)(=O)[C@@](C)(F)C(N)=N4)c3)nccc2n1 [Example 59, N-(3-((3R,6R)-5-amino-6-fluoro-3,6-dimethyl-1,1-dioxido-3,6-dihydro-2H-1,4-thiazin-3-yl)-4-fluorophenyl)-2-methoxypyrido[3,4-b]pyrazin-5-amine]
- pIC50 [1]: 8.48
- pIC50 [2]: 6.75
- pIC50 (Cathepsin D (Cat D)): 3.41

SMILES: C[C@]1(F)C(N)=N[C@](C)(c2cc(Nc3nccc4cc(C#N)cnc34)ccc2F)CS1(=O)=O [Example 60, 8-((3-((3R,6R)-5-amino-6-fluoro-3,6-dimethyl-1,1-dioxido-3,6-dihydro-2H-1,4-thiazin-3-yl)-4-fluorophenyl)amino)-1,7-naphthyridine-3-carbonitrile]
- pIC50 [1]: > 8.70
- pIC50 [2]: 7.09
- pIC50 (Cathepsin D (Cat D)): 4.00

SMILES: COc1cnc2c(Nc3ccc(F)c(C4(CF)CS(=O)(=O)C(C)(C)C(N)=N4)c3)nccc2c1 (stereo not drawn) [Example 61, N-(3-(5-amino-3-(fluoromethyl)-6,6-dimethyl-1,1-dioxido-3,6-dihydro-2H-1,4-thiazin-3-yl)-4-fluorophenyl)-3-methoxy-1,7-naphthyridin-8-amine]
- pIC50 [1]: 8.19
- pIC50 [2]: 7.50
- pIC50 (Cathepsin D (Cat D)): < 3.40

SMILES: COc1cnc2c(Nc3ccc(F)c(C4(C(F)F)CS(=O)(=O)C(C)(C)C(N)=N4)c3)nccc2c1 (stereo not drawn) [Example 62, N-(3-(5-amino-3-(difluoromethyl)-6,6-dimethyl-1,1-dioxido-3,6-dihydro-2H-1,4-thiazin-3-yl)-4-fluorophenyl)-3-methoxy-1,7-naphthyridin-8-amine]
- pIC50 [1]: 6.62
- pIC50 [2]: 5.74
- pIC50 (Cathepsin D (Cat D)): < 3.40

SMILES: COc1cnc2c(Nc3ccc(F)c([C@@]4(C(F)(F)F)CS(=O)(=O)C(C)(C)C(N)=N4)c3)nccc2c1 [Example 64, N-(3-((3R)-5-amino-6,6-dimethyl-1,1-dioxido-3-(trifluoromethyl)-3,6-dihydro-2H-1,4-thiazin-3-yl)-4-fluorophenyl)-3-methoxy-1,7-naphthyridin-8-amine]
- pIC50 [1]: 5.06
- pIC50 [2]: < 5.00
- pIC50 (Cathepsin D (Cat D)): < 3.40

SMILES: COc1cnc2c(Nc3ccc(F)c([C@]4(C(F)F)CS(=O)(=O)C(C)(C)C(N)=N4)c3)nccc2c1 [Example 67, (S)-5-Amino-3-(difluoromethyl)-3-(2-fluoro-5-((3-methoxy-1,7-naphthyridin-8-yl)amino)phenyl)-6,6-dimethyl-3,6-dihydro-2H-1,4-thiazine 1,1-dioxide]
- pIC50 [1]: 7.17
- pIC50 [2]: 6.01
- pIC50 (Cathepsin D (Cat D)): < 3.40

SMILES: CC1(C)C(N)=N[C@](C)(c2cc(Nc3nccc4cc(Cl)cnc34)cc(F)c2F)CS1(=O)=O [Example 69, (R)-5-Amino-3-(5-((3-chloro-1,7-naphthyridin-8-yl)amino)-2,3-difluorophenyl)-3,6,6-trimethyl-3,6-dihydro-2H-1,4-thiazine 1,1-dioxide]
- pIC50 [1]: 9.40
- pIC50 [2]: 7.64
- pIC50 (Cathepsin D (Cat D)): 5.07

SMILES: CC1(C)C(N)=N[C@](C)(c2cc(Nc3nccc4nc(O)cnc34)cc(F)c2F)CS1(=O)=O [Example 71, (R)-5-Amino-3-(2,3-difluoro-5-((2-hydroxypyrido[3,4-b]pyrazin-5-yl)amino)phenyl)-3,6,6-trimethyl-3,6-dihydro-2H-1,4-thiazine 1,1-dioxide]
- pIC50 [1]: 8.43
- pIC50 [2]: 7.32
- pIC50 (Cathepsin D (Cat D)): 4.34

SMILES: CC1(C)C(N)=N[C@@](C)(c2cc(Nc3nccc4nc(O)cnc34)cc(F)c2F)CS1(=O)=O [Example 72, (S)-5-Amino-3-(2,3-difluoro-5-((2-hydroxypyrido[3,4-b]pyrazin-5-yl)amino)phenyl)-3,6,6-trimethyl-3,6-dihydro-2H-1,4-thiazine 1,1-dioxide]
- pIC50 [1]: 6.30
- pIC50 [2]: 5.27
- pIC50 (Cathepsin D (Cat D)): 3.76

SMILES: CC1(C)C(N)=N[C@](C)(c2cc(Nc3csc4cc(C#N)cnc34)ccc2F)CS1(=O)=O [Example 73, (R)-3-((3-(5-Amino-3,6,6-trimethyl-1,1-dioxido-3,6-dihydro-2H-1,4-thiazin-3-yl)-4-fluorophenyl)amino)thieno[3,2-b]pyridine-6-carbonitrile]
- pIC50 [1]: 8.70
- pIC50 [2]: 8.80
- pIC50 (Cathepsin D (Cat D)): 4.56

SMILES: COc1cnc2c(Nc3ccc(F)c([C@]4(C)CS(=O)(=O)[C@@](C)(F)C(N)=N4)c3)nccc2c1 [Example 74, (3R,6R)-5-Amino-6-fluoro-3-(2-fluorophenyl-5-((3-methoxy-1,7-naphthyridin-8-yl)amino)phenyl)-3,6-dimethyl-3,6-dihydro-2H-1,4-thiazine 1,1-dioxide]
- pIC50 [1]: 7.86
- pIC50 [2]: 6.99
- pIC50 (Cathepsin D (Cat D)): < 3.40

SMILES: COc1cnc2c(Nc3ccc(F)c([C@]4(C)CS(=O)(=O)C(C)(C)C(N)=N4)c3)cccc2n1 [Example 75, (R)-5-Amino-3-(2-fluoro-5-((2-methoxyquinoxalin-5-yl)amino)phenyl)-3,6,6-trimethyl-3,6-dihydro-2H-1,4-thiazine 1,1-dioxide]
- pIC50 [1]: 7.94
- pIC50 [2]: 6.67
- pIC50 (Cathepsin D (Cat D)): 4.32

SMILES: CC1(C)C(N)=N[C@](C)(c2cc(Nc3ncc(F)c4cc(C#N)cnc34)ccc2F)CS1(=O)=O [Example 76, (R)-8-((3-(5-Amino-3,6,6-trimethyl-1,1-dioxido-3,6-dihydro-2H-1,4-thiazin-3-yl)-4-fluorophenyl)amino)-5-fluoro-1,7-naphthyridine-3-carbonitrile]
- pIC50 [1]: 8.70
- pIC50 [2]: 8.41
- pIC50 (Cathepsin D (Cat D)): < 4.36

SMILES: CC1(C)C(N)=N[C@@](C)(c2cc(Nc3noc4cc(Cl)cnc34)ccc2F)CS1(=O)=O [Example 78, (S)-5-Amino-3-(5-((6-chloroisoxazolo[4,5-b]pyridin-3-yl)amino)-2-fluorophenyl)-3,6,6-trimethyl-3,6-dihydro-2H-1,4-thiazine 1,1-dioxide]
- pIC50 [1]: 7.86
- pIC50 [2]: 7.03
- pIC50 (Cathepsin D (Cat D)): 4.34

SMILES: CC1(C)C(N)=N[C@](C)(c2cc(Sc3cccc4ccccc34)ccc2F)CS1(=O)=O [Example 79, (R)-5-Amino-3-(2-fluoro-5-(naphthalen-1-ylthio)phenyl)-3,6,6-trimethyl-3,6-dihydro-2H-1,4-thiazine 1,1-dioxide]
- pIC50 [1]: 5.60
- pIC50 [2]: 5.31
- pIC50 (Cathepsin D (Cat D)): 4.47

SMILES: COc1cnc(C(=O)Nc2ccc(F)c([C@]3(C)CS(=O)(=O)C(C)C(N)=N3)c2)cn1 (stereo partly drawn) [Example 82, N-(3-((3R)-5-Amino-3,6-dimethyl-1,1-dioxido-3,6-dihydro-2H-1,4-thiazin-3-yl)-4-fluorophenyl)-5-methoxypyrazine-2-carboxamide]
- pIC50 [1]: 8.12
- pIC50 [2]: 7.90
- pIC50 (Cathepsin D (Cat D)): < 3.40

SMILES: COc1cnc2c(Nc3ccc(F)c([C@]4(C)CS(=O)(=O)C5(CCCC5)C(N)=N4)c3)nccc2c1 [Example 84, (R)-10-Amino-8-(2-fluoro-5-((3-methoxy-1,7-naphthyridin-8-yl)amino)phenyl)-8-methyl-6-thia-9-azaspiro[4.5]dec-9-ene 6,6-dioxide]
- pIC50 [1]: 7.63
- pIC50 [2]: 7.24
- pIC50 (Cathepsin D (Cat D)): 3.55

— US20140107109A1, “AMINO-DIHYDROTHIAZINE AND AMINO-DIOXIDO DIHYDROTHIAZINE COMPOUNDS AS BETA-SECRETASE ANTAGONISTS AND METHODS OF USE” (Amgen Inc., priority 2012, published 2014)
